Experimental data from patent US20260014092A1, “EXTRACELLULAR VESICLES FROM MICROALGAE, THEIR USE FOR VACCINES AND FOR IMMUNOMODULATION” (AGS THERAPEUTICS SAS, priority 2023, published 2026).
“And” between values parts separate entries of the source, which are not always exact repeats. Equal entries are not always repeated. In the oligonucleotide strings, read from the 5' end, every base follows the letter of its sugar. An asterisk marks phosphorothioate; unmarked linkages are phosphodiester. Other units and linkages are bracketed, terminal groups are in braces. A string of capitals states the bases alone. d = 2'-deoxy (DNA)

Legend:
[1] = system: DSS-induced acute experimental colitis; assay: DSS-induced acute colitis (IBD model): Disease Activity Index (DAI); format: in vivo, C57BL/6 female mice; parameters: scale not given here; conditions: i.r.
Description: In mice, the disease can be induced by the treatment with Dextran Sodium Sulfate (DSS) to create a disease model for the evaluation of experimental therapies. Thus, the treatment of mice suffering from DSS-induced acute experimental colitis is a widely used animal model for the evaluation of therapies against the IBD disease. In our case, acute colitis was induced in mice by DSS 3% in drinking water for eight days. […] All handling of animals was conducted carefully to reduce stress to the minimum. All the experiments were performed in compliance with the guidelines of the French Ministry of Agriculture for experiments with laboratory animals.
Animals were randomized before treatment group's allocation based on body weight. The disease was induced by administration of DSS in drinking water (3%, w/v, MW: 40000, TdB Consultancy AB) in C57BL/6 female mice at 9 weeks of age. Mice were administered with test compounds either at D3 and D6 (M1, M3 and M5 intrarectal), or daily from D3 to D6 (M2 and M4, per os). Experimental groups were as follows: seven animals per group; a total of 49 mice.
Mice were euthanized at D8; samples were harvested to determine the extent of intestinal inflammation using various quantitative and semi quantitative methods including body weight evolution, clinical score (Disease Activity index; DAI, Table 13, below), large intestine measurement, cytokine analysis in colon and/or ileum tissue (TNFα, TGFβ, IFNα, IFNγ, IL-6 and IL-17A) and intestinal and colon histopathology for inflammation analysis, as follows and as summarized in Table 14, below.
In-Life Samples (all groups) • Bodyweight (daily) • Disease Activity Index (DAI) (diarrhea and blood in stool)
The life samples were recovered every day: i. body weight, ii. diarrhea, and iii. blood in stool and used to determine the disease activity index (DAI). The results are summarized in Table 33, for each animal in each group for seven consecutive days.

[2] = cited from earlier work

ODN 1585 (DNA dG*dG*dGdGdTdCdAdAdCdGdTdTdGdAdG*dG*dG*dG*dG*dG) [ODNA]
Cumulative score (DAI), Mean ([1]; D 0, group mean, D 3 and D 6, 50 μg/mouse): 0.00
Cumulative score (DAI) ([1]; D 0, individual mice, D 3 and D 6, 50 μg/mouse): 0
Cumulative score (DAI), Mean ([1]; D 1, group mean, D 3 and D 6, 50 μg/mouse): 0.14
Cumulative score (DAI) ([1]; D 1, individual mice, D 3 and D 6, 50 μg/mouse): 0 (6×) and 1
Cumulative score (DAI), Mean ([1]; D 2, group mean, D 3 and D 6, 50 μg/mouse): 0.14
Cumulative score (DAI) ([1]; D 2, individual mice, D 3 and D 6, 50 μg/mouse): 0 (6×) and 1
Cumulative score (DAI), Mean ([1]; D 3, group mean, D 3 and D 6, 50 μg/mouse): 0.14
Cumulative score (DAI) ([1]; D 3, individual mice, D 3 and D 6, 50 μg/mouse): 0 (6×) and 1
Cumulative score (DAI), Mean ([1]; D 4, group mean, D 3 and D 6, 50 μg/mouse): 1.71
Cumulative score (DAI) ([1]; D 4, individual mice, D 3 and D 6, 50 μg/mouse): 2 and 5 and 3 and 1 (2×) and 0 (2×)
Cumulative score (DAI), Mean ([1]; D 5, group mean, D 3 and D 6, 50 μg/mouse): 4.14
Cumulative score (DAI) ([1]; D 5, individual mice, D 3 and D 6, 50 μg/mouse): 2 and 8 and 4 (2×) and 3 (2×) and 5
Cumulative score (DAI), Mean ([1]; D 6, group mean, D 3 and D 6, 50 μg/mouse): 6.14
Cumulative score (DAI) ([1]; D 6, individual mice, D 3 and D 6, 50 μg/mouse): 7 (4×) and 6 (2×) and 3
Cumulative score (DAI), Mean ([1]; D 7, group mean, D 3 and D 6, 50 μg/mouse): 6.71
Cumulative score (DAI) ([1]; D 7, individual mice, D 3 and D 6, 50 μg/mouse): 8 (3×) and 7 (2×) and 6 and 3

CCCCCCCCCCCCCCCCCCCCCC[N+]1=C(/C=C/C=C2/N(CCCCCCCCCCCCCC)c3ccccc3C2(C)C)C(C)(C)c2ccccc21.[I-] [PKH26]
in vivo half-life [2]: over 100 days

cobitolimob (DNA GGAACAGTTCGTCCATGGC; listed as DNA, chemistry not given here) [ODNX]
Cumulative score (DAI), Mean ([1]; D 0, group mean, D 3 and D 6, 100 μg/mouse): 0.00
Cumulative score (DAI) ([1]; D 0, individual mice, D 3 and D 6, 100 μg/mouse): 0
Cumulative score (DAI), Mean ([1]; D 1, group mean, D 3 and D 6, 100 μg/mouse): 0.00
Cumulative score (DAI) ([1]; D 1, individual mice, D 3 and D 6, 100 μg/mouse): 0
Cumulative score (DAI), Mean ([1]; D 2, group mean, D 3 and D 6, 100 μg/mouse): 0.14
Cumulative score (DAI) ([1]; D 2, individual mice, D 3 and D 6, 100 μg/mouse): 0 (6×) and 1
Cumulative score (DAI), Mean ([1]; D 3, group mean, D 3 and D 6, 100 μg/mouse): 0.57
Cumulative score (DAI) ([1]; D 3, individual mice, D 3 and D 6, 100 μg/mouse): 0 (5×) and 3 and 1
Cumulative score (DAI), Mean ([1]; D 4, group mean, D 3 and D 6, 100 μg/mouse): 2.43
Cumulative score (DAI) ([1]; D 4, individual mice, D 3 and D 6, 100 μg/mouse): 5 and 3 (2×) and 0 (2×) and 2 and 4
Cumulative score (DAI), Mean ([1]; D 5, group mean, D 3 and D 6, 100 μg/mouse): 4.14
Cumulative score (DAI) ([1]; D 5, individual mice, D 3 and D 6, 100 μg/mouse): 4 (3×) and 5 (2×) and 1 and 6
Cumulative score (DAI), Mean ([1]; D 6, group mean, D 3 and D 6, 100 μg/mouse): 5.71
Cumulative score (DAI) ([1]; D 6, individual mice, D 3 and D 6, 100 μg/mouse): 7 and 6 and 4 and 5 (2×) and 3 and 10
Cumulative score (DAI), Mean ([1]; D 7, group mean, D 3 and D 6, 100 μg/mouse): 7.43
Cumulative score (DAI) ([1]; D 7, individual mice, D 3 and D 6, 100 μg/mouse): 10 (2×) and 7 and 5 and 6 (2×) and 8
